This note sets out measurements from patent publication US10195166B2, “Methods for treating hepatitis C virus infectious disease” (priority 2013, dated 2019).

What all share (format): cell-based, hepatitis C virus
One test has as its system HCV. Kind of test: HCV RNA copies, GRIM19 overexpression combined with metformin. Particulars: transfection with pcDNA3_GRIM19 plus metformin (FIG. 8). From the text:
In this regard, a change in HCV RNA copies was examined in the case of administration of metformin (Sigama Aldrich, Cat. D150959), an activator of AMP-activated protein kinase (AMPK) inhibiting the activity of ACC, in combination.

Test [1] concerns in vitro HCV infection model (HCVcc infected Huh7 cells). The test can be described thus: HCV RNA level after transfection with expression vectors for GRIM19 domains in in vitro HCV infection model. Particulars: overexpression of the domain by transfection with expression vector (FIG. 11b). On the procedure: An expression vector which can express the […], GRIM19-D2 (aa 37-72), GRIM19-D3 (aa 73-101), and GRIM19-D4 (aa 102-144) above was prepared, and the effect of each domain was evaluated in in vitro HCV infection model in Example 2.
In order to prepare the expression vector, the gene for each domain of GRIM19 was obtained through PCR with template of the vector expressing pcDNA3_GRIM19, and each domain was subcloned into pCMV-3Tag-3A vector (Agilent Technologies, Inc.) using restriction sites of restriction enzymes EcoRI and SalI. For GRIM19-D2, GRIM19-D3, and GRIM19-D4 to be expressed in the vector, a start codon was added prior to 5′ of the actually corresponding gene sequence of GRIM19. Accordingly, for each protein fragment, methionine was added prior to the N terminus of the actually corresponding amino acid sequence of GRIM19.

Test [2] deals with Huh7 cells infected with HCVcc. The test can be described thus: HCV RNA level after direct treatment with cell permeable GRIM19 domain peptides. Particulars: 10 μM peptide for 48 hours (FIG. 12). As for the experimental part:
In order to confirm whether an anti-HCV effect is shown when penetrating each domain itself of GRIM19 protein into cells, the effect was evaluated in in vitro HCV infection model by synthesizing peptides in which cell permeable peptide sequences (CP) bind to N-terminal of each domain of GRIM19 of Example 8. The sequences of each domain of GRIM19 comprising the synthesized cell permeable peptide sequences (CP) were analyzed in Table 4 below.
After treating Huh7 cells infected with HCVcc through in vitro HCV infection model of Example 2 with 10 μM of CP-GRIM19-D1, CP-GRIM19-D2, and CP-GRIM19-D3 for 48 hours, the level of RNA in HCV was examined.

The test system of test [3] is HCVcc infected Huh7 cells. Kind of test: HCV replication, GRIM19 overexpression combined with DGAT-1 inhibitor. Particulars: 40 μM compound of Formula 1 simultaneously with GRIM19 overexpression in HCVcc infected Huh7 cells (FIG. 9).
The subject of test [4] is HCVcc infected Huh7 cells. The test can be described thus: HCV RNA copies, GRIM19 overexpression and/or sofosbuvir in in vitro HCV infection model. Conditions: transfection with pcDNA3_GRIM19 plus sofosbuvir (FIG. 10). As for the experimental part:
HCVcc infected Huh7 cells were transfected with pcDNA3_GRIM19 using FUGENE HD, as in Example 3 above, the cells were treated with sofosbuvir (PharmaBLOCK R&D Co. Ltd.) (Formula 2):
[drawing 6] a compound inhibiting RNA-dependent RNA polymerase activity of HCV, or the cells were transfected with pcDNA3_GRIM19 and treated with sofosbuvir. Then, a change in HCV RNA copies was evaluated.

No end group written: not given here. Some results are limits rather than exact numbers.

In the case of `CN(C)C(=N)N=C(N)N` [metformin], in the test with HCV, the “effect of the combination on HCV” value is “synergistic effect of inhibiting HCV” and the “increase in HCV RNA compared with treatment with metformin alone” value was “considerably lower”. Take “GRIM19-D2: GRIM19 protein fragment aa 37-72 (SEQ ID NO: 8), expressed from pCMV-3Tag-3A vector (MAIGIGTLIYGHWSIMKWNRERRRLQIEDFEARIALL; also: 3Tag vector tags, position not given here)”: in test [1], the “level of HCV RNA” value is reported as “significantly decreased”. As to “GRIM19-D4: GRIM19 protein fragment aa 102-144 (SEQ ID NO: 12), expressed from pCMV-3Tag-3A vector (MDWKVGESVFHTTRWVPPLIGELYGLRTTEEALHASHGFMWYT; also: 3Tag vector tags (pCMV-3Tag-3A))”, in test [1], the “level of HCV RNA” value is given as “significantly decreased”. Same read-out and setting: under “GRIM19-D1: GRIM19 protein fragment aa 1-36 (SEQ ID NO: 6), expressed from pCMV-3Tag-3A vector (MAASKVKQDMPPPGGYGPIDYKRNLPRRGLSGYSML; also: 3Tag vector tags (pCMV-3Tag-3A))” stands “significantly decreased”; under “GRIM19-D3: GRIM19 protein fragment aa 73-101 (SEQ ID NO: 10), expressed from pCMV-3Tag-3A vector (MPLLQAETDRRTLQMLRENLEEEAIIMKDV; also: 3Tag vector tags, position not given here)”, “significantly decreased”.

Regarding “CP-GRIM19-D3: synthesized peptide, cell permeable peptide sequence (CP) at N-terminal of GRIM19 domain 3, SEQ ID NO: 16 (RRRRRRRRRPLLQAETDRRTLQMLRENLEEEAIIMKDV; CP-GRIM19-D3)”, the “level of HCV RNA” value in test [2] was “significantly decreased”.

Turning to “CP-GRIM19-D2: synthesized peptide, cell permeable peptide sequence (CP) at N-terminal of GRIM19 domain 2, SEQ ID NO: 15 (RRRRRRRRRAIGIGTLIYGHWSIMKWNRERRRLQIEDFEARIALL; CP-GRIM19-D2)”, the “level of HCV RNA” value in test [2] was “significantly decreased”.

Take “CP-GRIM19-D1: synthesized peptide, cell permeable peptide sequence (CP) at N-terminal of GRIM19 domain 1, SEQ ID NO: 14 (RRRRRRRRRMAASKVKQDMPPPGGYGPIDYKRNLPRRGLSGYSML; CP-GRIM19-D1)”: the “level of HCV RNA” value in test [2] is given as “significantly decreased”. In the case of `O=C(Nc1ccccc1)Nc1ccc(-c2ccc(C(=O)[C@@H]3CCC[C@H]3C(=O)O)cc2)cc1` [A922500], the “effect of the combination on HCV replication” value in test [3] is on record as “synergistic effect of inhibiting HCV replication”. Take `CC(C)OC(=O)[C@H](C)N[P@](=O)(OC[C@H]1O[C@@H](n2ccc(=O)[nH]c2=O)[C@](C)(F)[C@@H]1O)Oc1ccccc1` [sofosbuvir]: in test [4], the “effect of the combination on HCV” value is “synergistic effect of inhibiting HCV” and the “lower increase in HCV RNA than treatment with sofosbuvir alone” value is reported as at least 45%.
